# According to ChEMBL document CHEMBL1139200, “Structure-activity relationships, and drug metabolism and pharmacokinetic properties for indazole piperazine and indazole piperidine inhibitors of ROCK-II” (Bioorg Med Chem Lett, 2007):
# Key:
# Cytochrome P450 3A4 = Cytochrome P450 3A4 (Homo sapiens, UniProt P08684)
# [1] = biological target: Rho-associated protein kinase 2 (Homo sapiens, UniProt O75116); assay: Inhibition of ROCK2
# [2] = Inhibition of MRCK; set-up: species or system Homo sapiens
# [3] = AUC (0 to infinity) in rat at 2 mg/kg, po; format: ADME, organism-based; set-up: time infinity, dose 2 mg/kg, route oral; settings: plasma
# [4] = AUC (0 to infinity) in rat at 1 mg/kg, iv; format: ADME, organism-based; set-up: time infinity, dose 1 mg/kg, route intravenous; settings: plasma
# N2a = assay: Inhibition of LPA-induced neurite retraction in mouse N2A cells; format: functional, cell-based
# [5] = Inhibition of PKA; set-up: species or system Homo sapiens
# [6] = Clearance in rat at 1 mg/kg, iv; format: ADME, organism-based; set-up: dose 1 mg/kg, route intravenous; settings: in vivo
# [7] = Volume of distribution in rat at 1 mg/kg, iv; format: ADME, organism-based; set-up: dose 1 mg/kg, route intravenous; settings: in vivo
# Homo sapiens [8] = organism: Homo sapiens; assay: Selectivity for ROCK2 over PKA
# [9] = Tmax in rat at 2 mg/kg, po; format: ADME, organism-based; set-up: dose 2 mg/kg, route oral; settings: in vivo
# [10] = Metabolic stability in human liver microsomes
# Homo sapiens [11] = organism: Homo sapiens; assay: Selectivity for ROCK2 over MRCK
# [12] = Cmax in rat at 2 mg/kg, po; format: ADME, organism-based; set-up: dose 2 mg/kg, route oral; settings: in vivo
# [13] = Half life in rat at 1 mg/kg, iv; format: ADME, organism-based; set-up: dose 1 mg/kg, route intravenous; settings: in vivo
# [14] = Oral bioavailability in rat at 2 mg/kg; format: ADME, organism-based; settings: in vivo
# Cytochrome P450 3A4, sequence (P08684 whole entry): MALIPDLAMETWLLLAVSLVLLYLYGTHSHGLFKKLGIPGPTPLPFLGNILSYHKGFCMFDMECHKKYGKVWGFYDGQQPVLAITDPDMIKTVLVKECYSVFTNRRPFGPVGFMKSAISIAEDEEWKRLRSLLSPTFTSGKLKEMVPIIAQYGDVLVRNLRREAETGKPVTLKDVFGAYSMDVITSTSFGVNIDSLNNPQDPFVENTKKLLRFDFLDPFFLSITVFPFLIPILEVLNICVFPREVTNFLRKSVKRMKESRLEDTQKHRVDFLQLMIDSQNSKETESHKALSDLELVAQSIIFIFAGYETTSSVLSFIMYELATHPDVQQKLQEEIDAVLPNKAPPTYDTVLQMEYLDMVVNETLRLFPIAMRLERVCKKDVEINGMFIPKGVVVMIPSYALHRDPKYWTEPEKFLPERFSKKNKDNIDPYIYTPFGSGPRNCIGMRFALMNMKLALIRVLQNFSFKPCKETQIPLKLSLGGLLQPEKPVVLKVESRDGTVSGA
# Rho-associated protein kinase 2, sequence (O75116 whole entry): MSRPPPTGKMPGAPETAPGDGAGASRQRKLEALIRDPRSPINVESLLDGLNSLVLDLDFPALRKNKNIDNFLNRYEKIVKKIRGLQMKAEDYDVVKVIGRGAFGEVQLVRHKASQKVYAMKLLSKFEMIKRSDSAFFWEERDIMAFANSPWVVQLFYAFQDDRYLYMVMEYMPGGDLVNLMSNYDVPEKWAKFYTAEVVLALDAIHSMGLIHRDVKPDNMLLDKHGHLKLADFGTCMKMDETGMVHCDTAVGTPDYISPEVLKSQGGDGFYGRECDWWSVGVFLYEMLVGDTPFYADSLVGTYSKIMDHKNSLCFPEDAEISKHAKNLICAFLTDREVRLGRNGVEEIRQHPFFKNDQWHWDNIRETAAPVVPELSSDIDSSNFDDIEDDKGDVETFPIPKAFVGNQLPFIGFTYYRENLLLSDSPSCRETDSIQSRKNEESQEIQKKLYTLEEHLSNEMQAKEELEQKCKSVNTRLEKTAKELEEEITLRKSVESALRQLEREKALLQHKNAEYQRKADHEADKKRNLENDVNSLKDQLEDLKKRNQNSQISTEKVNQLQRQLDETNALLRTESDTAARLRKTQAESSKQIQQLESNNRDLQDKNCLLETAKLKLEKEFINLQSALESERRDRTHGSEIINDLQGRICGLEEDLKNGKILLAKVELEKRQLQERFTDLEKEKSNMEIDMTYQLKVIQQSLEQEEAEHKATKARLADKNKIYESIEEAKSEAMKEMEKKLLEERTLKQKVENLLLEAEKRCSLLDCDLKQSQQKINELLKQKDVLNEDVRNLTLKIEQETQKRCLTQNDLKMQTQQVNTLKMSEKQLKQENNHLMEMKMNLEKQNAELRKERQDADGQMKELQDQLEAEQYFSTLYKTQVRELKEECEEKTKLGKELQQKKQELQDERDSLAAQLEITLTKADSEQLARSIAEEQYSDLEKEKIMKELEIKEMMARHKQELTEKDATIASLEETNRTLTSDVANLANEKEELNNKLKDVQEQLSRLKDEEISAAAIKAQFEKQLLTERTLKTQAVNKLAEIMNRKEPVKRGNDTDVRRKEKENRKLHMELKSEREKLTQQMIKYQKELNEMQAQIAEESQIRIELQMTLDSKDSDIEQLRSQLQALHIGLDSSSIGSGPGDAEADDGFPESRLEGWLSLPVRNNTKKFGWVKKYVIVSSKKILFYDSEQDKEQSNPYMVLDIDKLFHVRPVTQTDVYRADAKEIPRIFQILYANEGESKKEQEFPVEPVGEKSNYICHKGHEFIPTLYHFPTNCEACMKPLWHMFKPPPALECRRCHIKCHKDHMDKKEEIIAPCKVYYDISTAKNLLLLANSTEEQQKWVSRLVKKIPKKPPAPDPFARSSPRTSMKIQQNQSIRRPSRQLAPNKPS
structure (smiles),measurement,setting,value
O=C([C@@H]1Cc2ccccc2CN1)N1CCN(c2ccc3[nH]ncc3c2)CC1,IC50,Cytochrome P450 3A4,10000 nM
same,IC50,[1],5300 nM
N[C@@H](C(=O)N1CCN(c2ccc3[nH]ncc3c2)CC1)c1ccccc1,IC50,Cytochrome P450 3A4,470 nM
same,IC50,[1],1300 nM
O=C([C@@H](O)c1cccc(Cl)c1)N1CCC(Nc2ccc3[nH]ncc3c2)CC1,IC50,Cytochrome P450 3A4,2000 nM
same,IC50,[1],350 nM
NC(C(=O)N1CCN(c2ccc3[nH]ncc3c2)CC1)c1ccc(Cl)cc1 (configuration not stated),IC50,Cytochrome P450 3A4,530 nM
same,IC50,[1],190 nM
NC(C(=O)N1CCN(c2ccc3[nH]ncc3c2)CC1)c1ccc(Br)cc1 (configuration not stated),IC50,[2],> 20000 nM
same,AUC(0-inf),[3],0.09 µM·h
same,AUC(0-inf),[4],0.54 µM·h
same,IC50,N2a,> 15000 nM
same,IC50,[5],450 nM
same,IC50,Cytochrome P450 3A4,410 nM
same,clearance,[6],75.5 mL/min/kg
same,Vd,[7],2.7 L/kg
same,Ratio IC50,Homo sapiens [8],5
same,Tmax,[9],24 min
same,half-life,[10]; liver microsomes,9.8 min
same,Ratio IC50,Homo sapiens [11],> 222
same,Cmax,[12],400 nM
same,half-life,[13],36 min
same,IC50,[1],90 nM
same,bioavailability,[14],8%
NC(C(=O)N1CCN(c2ccc3[nH]ncc3c2)CC1)c1cccc(Cl)c1 (configuration not stated),IC50,Cytochrome P450 3A4,250 nM
same,IC50,[1],760 nM
NC(C(=O)N1CCC(Nc2ccc3[nH]ncc3c2)CC1)c1ccc(Br)cc1 (configuration not stated),IC50,[2],7200 nM
same,AUC(0-inf),[3],0.15 µM·h
same,AUC(0-inf),[4],0.95 µM·h
same,IC50,N2a,5700 nM
same,IC50,[5],940 nM
same,IC50,Cytochrome P450 3A4,490 nM
same,clearance,[6],41.4 mL/min/kg
same,Vd,[7],1.7 L/kg
same,Ratio IC50,Homo sapiens [8],72
same,Tmax,[9],42 min
same,half-life,[10]; microsomes,10.8 min
same,Ratio IC50,Homo sapiens [11],554
same,Cmax,[12],100 nM
same,half-life,[13],36 min
same,IC50,[1],13 nM
same,bioavailability,[14],8%
CC(C)[C@@H](O)C(=O)N1CCN(c2ccc3[nH]ncc3c2)CC1,IC50,Cytochrome P450 3A4,10000 nM
same,IC50,[1],3900 nM
NC(C(=O)N1CCC(Nc2ccc3[nH]ncc3c2)CC1)c1cccc(Cl)c1 (configuration not stated),IC50,Cytochrome P450 3A4,170 nM
same,IC50,[1],150 nM
O=C([C@H](O)c1ccccc1)N1CCN(c2ccc3[nH]ncc3c2)CC1,IC50,Cytochrome P450 3A4,10000 nM
same,IC50,[1],800 nM
O=C([C@H](O)c1ccccc1)N1CCC(Nc2ccc3[nH]ncc3c2)CC1,IC50,Cytochrome P450 3A4,1000 nM
same,IC50,[1],770 nM
N[C@H](Cc1ccccc1)C(=O)N1CCN(c2ccc3[nH]ncc3c2)CC1,IC50,Cytochrome P450 3A4,7000 nM
same,IC50,[1],380 nM
C[C@H](N)C(=O)N1CCC(Nc2ccc3[nH]ncc3c2)CC1,IC50,Cytochrome P450 3A4,> 10000 nM
same,IC50,[1],6000 nM
O=C([C@@H](O)c1ccccc1Cl)N1CCC(Nc2ccc3[nH]ncc3c2)CC1,IC50,Cytochrome P450 3A4,4000 nM
same,IC50,[1],1700 nM
C[C@@H](N)C(=O)N1CCN(c2ccc3[nH]ncc3c2)CC1,IC50,Cytochrome P450 3A4,10000 nM
same,IC50,[1],> 10000 nM
O=C(C(O)c1ccc(Cl)cc1)N1CCN(c2ccc3[nH]ncc3c2)CC1 (configuration not stated),IC50,Cytochrome P450 3A4,3000 nM
same,IC50,[1],190 nM
O=C(C(O)c1ccc(Br)cc1)N1CCC(Nc2ccc3[nH]ncc3c2)CC1 (configuration not stated),IC50,[2],> 20000 nM
same,AUC(0-inf),[3],0.71 µM·h
same,AUC(0-inf),[4],1.35 µM·h
same,IC50,N2a,3500 nM
same,IC50,[5],4200 nM
same,IC50,Cytochrome P450 3A4,3500 nM
same,clearance,[6],30.3 mL/min/kg
same,Vd,[7],1.9 L/kg
same,Ratio IC50,Homo sapiens [8],53
same,Tmax,[9],24 min
same,half-life,[10]; liver microsomes,36.3 min
same,Ratio IC50,Homo sapiens [11],> 250
same,Cmax,[12],200 nM
same,half-life,[13],66 min
same,IC50,[1],80 nM
same,bioavailability,[14],26%
O=C(C(O)c1ccc(Br)cc1)N1CCN(c2ccc3[nH]ncc3c2)CC1 (configuration not stated),IC50,[2],> 20000 nM
same,AUC(0-inf),[3],0.21 µM·h
same,AUC(0-inf),[4],0.38 µM·h
same,IC50,N2a,2400 nM
same,IC50,[5],2700 nM
same,clearance,[6],109 mL/min/kg
same,Vd,[7],3.7 L/kg
same,Tmax,[9],24 min
same,Cmax,[12],100 nM
same,half-life,[13],42 min
same,IC50,[1],100 nM
same,bioavailability,[14],28%
N[C@H](C(=O)N1CCC(Nc2ccc3[nH]ncc3c2)CC1)c1ccccc1,IC50,[1],830 nM
N[C@@H](Cc1ccccc1)C(=O)N1CCC(Nc2ccc3[nH]ncc3c2)CC1,IC50,Cytochrome P450 3A4,1000 nM
same,IC50,[1],470 nM
O=C([C@H](O)c1ccccc1Cl)N1CCN(c2ccc3[nH]ncc3c2)CC1,IC50,Cytochrome P450 3A4,8000 nM
same,IC50,[1],1200 nM
O=C([C@H](O)c1cccc(Cl)c1)N1CCN(c2ccc3[nH]ncc3c2)CC1,IC50,Cytochrome P450 3A4,3500 nM
same,IC50,[1],1000 nM
C[C@H](O)C(=O)N1CCC(Nc2ccc3[nH]ncc3c2)CC1,IC50,Cytochrome P450 3A4,1000 nM
same,IC50,[1],10000 nM
